According to patent US10329304B2, “Compounds and methods for inhibition of hedgehog signaling and phosphodiesterase” (Vanderbilt University, priority 2014, dated 2019):
Like-named read-outs stand apart in the source and are kept apart here.

Legend:
[1] = biological target: T1, Smo cyclopamine (Cyc) binding site (Homo sapiens, UniProt Q99835); assay: BODIPY-cyclopamine competition in HEK-293T cells overexpressing Smo
T1 construct: expressed in transfected cells; host or cells: HEK-293T
Experimental: Thus, HEK-293T cells overexpressing Smo were concurrently treated with 5 nM BODIPY-Cyc and molecules of interest.

[2] = test system: PKA activation; assay: Immunostaining of autophosphorylated PKA catalytic subunit in NIH3T3 cells; format: cell-based; settings: SAG-stimulated NIH3T3 cells, Egm 5 μM, Rolipram 10 μM
Experimental: NIH3T3 cells were plated on Poly-D-Lysine-coated glass coverslips and were cultured at 37° C., 5% CO2 in DMEM medium containing 10% fetal bovine serum until reaching 75% confluency. For one set of experiments, cells were then transfected with VSV-tagged PDE4D3 plasmid (gift from Miles Houslay, University of Glasgow, Scotland, UK) using Fugene6 transfection reagent (Roche, Indianapolis, Ind.) per manufacturer's protocol. Afterward, cell medium was replaced with DMEM/0.5% FBS containing either 5 μM eggmanone or DMSO and incubated overnight at 37° C., 5% CO2. Cells were fixed in 4% PFA at room temperature for 10 minutes prior to permeabilization, blocking, and staining with primary antibodies against Arl13b (gift of Tamary Caspary, Emory University, Atlanta, Ga.) and VSV (AbCam, Cambridge, Mass.). Fluorescent immunocytochemistry was performed using species-specific, secondary antibodies (Jackson Immunoresearch, West Grove, Pa.). For additional immunocytochemistry experiment, cells were treated with 20 nM SAG in the presence or absence of 5 uM Eggmanone. After overnight incubation, cells were washed with PBS, fixed for 10 minutes in 4% PFA, permeabilized 20 minutes at −20C with cold methanol, blocked with PBS/1% BSA, and incubated with primary antibodies to phospho-PKA catalytic domain Thr197 (Cell Signaling, Danvers, Mass.) and then to Arl13b. An additional overnight blocking step using unconjugated rabbit IgG was required between primary antibody incubations since both antibodies were produced in rabbit. Fluorescent conjugated secondary antibodies were used for visualization. Data analysis was performed in part through the use of the VUMC Cell Imaging Shared Resource.
Using ImageJ software (National Institutes of Health, developed by W. Rasband), a region of interest was created using the magic wand tool on Arl13b channel and transposed to the Gli2 channel, and integrated density was measured and reported as arbitrary units (a.u.). For phospho-PKA, using ImageJ, a line selection tool was used to select a line projected through the length of the primary cilia and an equal length beyond. The intensity values were potted and the cumulative florescence (area under the curve) was calculated for three cilia, blindly, for each treatment. These values for cilia and pericilia domain were analyzed by a two tailed students t-test. For correlation analysis, correlation coefficient for intensity of gamma-tubulin and phosphor-PKA were calculated and compared among treatments with students t-test.

[3] = test system: Ptch1 transcription; assay: Sufu−/− mouse embryonic fibroblasts qRT-PCR; format: cell-based; settings: for inhibition at 10 µM: Mus musculus, Fibroblast, read-out: Sufu Null (Ptc) % Inh., 10 μM
From the text: (§1) In light of EGM1's ability to halt Hh transcriptional activity at a node downstream of the negative regulator Sufu, and thus also downstream of Smo, we sought to confirm mode of action retention with our most promising analogs. Therefore, we employed Sufu−/− mouse embryonic fibroblasts (MEF) that display constitutively active transcription of Hh target genes Gli1 and Ptch1 and monitored the ability of our optimized analogs to repress signaling via quantitative reverse transcription-PCR (qRT-PCR). […] We then evaluated improved analogs from multiple structural classes including those from Table 1 with cyclohexylthiophene cores as well as from Table 13 with structurally distinct core modifications.
(§2) Sufu^−/− cells were seeded into 12-well plates at a density of 100,000 cells/well in D10 FBS and incubated for 24 hours. Small molecule solutions were prepared by adding the desired amount of compound from 10 mM DMSO stock to D0.5 FBS. Negative control was prepared by adding an equi-volume amount of DMSO to D0.5 FBS as compared to small molecule treated conditions. Cell plating medium was aspirated and replaced with 1 mL of prepared small molecule-containing media, and plates were incubated for 24 hours before proceeding to RNA isolation.
(§3) Cells were washed 1× with 1× phosphate-buffered saline (PBS) then RNA was isolated using the Qiagen RNeasy Mini Kit (Qiagen, Germantown, Md., USA) according to the manufacturer's protocol, eluting RNA from the spin column with 30 μL of RNase-free water. RNA was placed on ice and immediately subjected to reverse transcription. Remaining RNA was stored at −80° C.
(§4) Reverse transcription polymerase chain reaction (RT-PCR) was performed with the Applied Biosystems High Capacity cDNA Reverse Transcription Kit (ThermoFisher Scientific, Waltham, Mass., USA) using an Eppendorf MasterCycler. Each 20 μL reaction contained 0.5 μg of total RNA, 2 μL of 10×RT Buffer, 0.8 μL of 25×dNTP Mix (100 mM), 2 μL of 10×RT Random Primers, 1 μL of MultiScribe® Reverse Transcriptase (50 U/μL), 1 μL of Recombinant RNasin® Ribonuclease Inhibitor (40 U/μL) (Promega, Madison, Wis., USA), and nuclease-free water. Reverse transcription was performed with the following program: 25° C. for 10 minutes, 37° C. for 120 minutes, and 85° C. for 5 minutes. The cDNA was subjected to quantitative real-time PCR (Q-PCR) or stored at −20° C.
(§5) Quantitative real-time PCR was performed on an Applied Biosystems 7900 HT Fast Real Time PCR System in 384-well format. Each cDNA sample was assayed in triplicate with both probe of interest and control probe. Master mixes for each probe were prepared corresponding to 10 μL of Applied Biosystems TaqMan Universal PCR Master Mix (ThermoFisher Scientific, Waltham, Mass., USA), 1 μL of primer, and nuclease-free water corresponding to a volume providing 20 μL reactions when loading an average of 50 ng of cDNA. Quantitative real-time PCR was run with the following thermal cycling protocol: 50° C. for 2 min., 95° C. for 10 min., and 40 cycles of 95° C. for 15 seconds, 60° C. for 1 min., then fluorescence reading. The following FAM probes were purchased from Life Technologies (Carlsbad, Calif., USA): mouse GAPDH, Mm99999915_g1; mouse Gli1, Mm00494646_g1; mouse Ptch1, Mm01306905_m1.
(§6) Quantitative real-time PCR data for Hh signaling inhibition was quantitated using the ΔΔCt method. Control probe values were subtracted from probe of interest values to arrive at the ΔCt value. The ΔCt value was transformed by 2-^ΔCt to arrive at the ΔΔCt value. All ΔΔCt values were divided by the average negative control ΔΔCt value to provide percent Hh signaling activity. Percent inhibition values were derived by calculating the inverse of percent activity. Data is reported as mean±standard error of the mean (SEM), representing at least two biological replicates, each quantitated in triplicate.

[4] = test system: Gli1 mRNA; assay: Hh % Inh.: SAG-induced Gli1 expression in C3H10T½ cells (qPCR); format: cell-based; settings: Mus musculus, C3H 10T1/2, SAG-induced (100 nM), 24 hours; for inhibition at 1 µM: 1 pM [sic], read-out: C3H10T1/2 qPCR, Gh1 mRNA % Inh., 1 pM; for inhibition at 10 µM: 10 pM [sic], read-out: C3H10T1/2 qPCR, Gh1 mRNA % Inh., 10 pM; for EC50: read-out: C3H10T1/2 qPCR, Gh1 mRNA EC50
Experimental: Compounds are dosed from 10 mM DMSO stock solutions, and mRNA is isolated after 24 hours of compound treatment. mRNA is reverse transcribed to produce cDNA which is quantified by quantitative polymerase chain reaction (qPCR) in triplicate and levels are normalized to GAPDH levels. Data is presented as percent inhibition compared to positive control (SAG).

[5] = test system: Hedgehog signaling (TM3-Gli-Luc); assay: TM3-Gli-Luc luciferase reporter assay stimulated with 20 nM SAG; format: cell-based
Method in brief: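 TM3-Gli-Luc cells on 0.1% gelatin in DMEM/F12 with 2.5% FBS, treated 48 h with compound plus 20 nM SAG. Steady-Glo luminescence normalized to CellTiter-Glo viability, DMSO-only (no SAG) background subtracted, percent of SAG control. EC50 averaged from ≥2 independent days ±SEM.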

[6] = test system: Gli1 transcription; assay: Sufu−/− mouse embryonic fibroblasts qRT-PCR; format: cell-based
From the text: as §1, §2, §3, §4, §5, §6

[7] = Lipophilic efficiency (LipE = pEC50 − cLogP) and cLogP
Experimental: Therefore, we prioritized phenotypic analog evaluation in the Gli-responsive luciferase reporter line TM3-Gli-Luc stimulated with 20 nM Smo agonist (SAG) while concurrently monitoring non-specific cellular toxicity. Additionally, lipophilic efficiency (LipE), a concurrent readout of a compound's potency (pEC50) and lipophilicity (cLogP) derived by subtracting the latter from the former, was utilized to optimize solubility properties (Table 12B), allowing for straightforward tracking of compounds with improvements in both parameters.

[8] = test system: zebrafish embryos; assay: Zebrafish embryo phenotypic assay (ZF); format: in vivo; settings: wild-type embryonic zebrafish, dosed 5 hpf
Method in brief: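 Wild-type AB zebrafish embryos (~10) in E3 egg water dosed at 5 hours post-fertilization from 1 mM or 10 mM DMSO stock. Scored for gross morphological changes at 24, 48 and 72 hpf. Screening run used 5 μM final, added ~4 hpf, incubated at 28.5 °C.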

[9] = Table 9A, read-out: TM3 G8 Luciferase EC 50
[10] = Calculated as pEC50 - cLogP, Molinspiration Cheminformatics
[11] = 20 nM SAG, mean ± standard error of the mean, read-out: TM3-Gli-Luc EC50
[12] = TM3-Gli-Luc reporter line stimulated with 20 nM SAG, mean ± SEM, Table 14, read-out: TM3-Gli-Luc EC50

T1 sequence (Q99835 28-787): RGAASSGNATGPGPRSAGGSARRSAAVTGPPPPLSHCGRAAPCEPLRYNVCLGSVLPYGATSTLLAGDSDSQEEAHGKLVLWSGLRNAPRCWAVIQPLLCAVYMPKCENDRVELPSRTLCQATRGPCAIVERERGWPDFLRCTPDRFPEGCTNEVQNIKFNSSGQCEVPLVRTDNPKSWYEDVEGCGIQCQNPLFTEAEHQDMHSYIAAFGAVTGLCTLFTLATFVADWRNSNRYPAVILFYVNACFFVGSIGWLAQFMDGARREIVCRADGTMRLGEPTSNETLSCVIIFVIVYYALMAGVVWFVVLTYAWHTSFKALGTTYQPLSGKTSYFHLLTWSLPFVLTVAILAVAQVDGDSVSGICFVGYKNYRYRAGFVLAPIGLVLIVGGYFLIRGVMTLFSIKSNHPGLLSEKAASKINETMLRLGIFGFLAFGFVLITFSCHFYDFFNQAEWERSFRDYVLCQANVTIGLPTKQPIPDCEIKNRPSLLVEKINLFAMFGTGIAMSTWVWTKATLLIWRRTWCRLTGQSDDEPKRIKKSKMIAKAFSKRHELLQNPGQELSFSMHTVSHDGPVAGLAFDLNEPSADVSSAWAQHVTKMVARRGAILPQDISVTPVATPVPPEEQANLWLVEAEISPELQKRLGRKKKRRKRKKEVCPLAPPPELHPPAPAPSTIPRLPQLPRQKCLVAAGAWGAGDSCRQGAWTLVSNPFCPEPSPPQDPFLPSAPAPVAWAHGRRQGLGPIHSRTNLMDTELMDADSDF

| Compound | inhibition at 10 µM [3] | inhibition at 1 µM [4] | inhibition at 10 µM [4] | EC50 [4] | EC50 [5, 9] | other results |
| --- | --- | --- | --- | --- | --- | --- |
| CC1=C2C[C@H]3[C@@H](CC=C4CC(=O)CC[C@@]43C)[C@@H]2CC[C@]12O[C@@H]1C[C@H](C)CN(CCNC(=O)CCCCCNC(=O)CCc3ccccc3)[C@H]1[C@H]2C [KAAD-Cyc, KAAD-cyclopamine, reference compound] |  |  |  |  |  | Displacement of BODIPY-cyclopamine (5 nM) from Smo [1]: completely displaced BODIPY-Cyc |
| CCCC(=O)Nc1ncnc2c1ncn2[C@@H]1O[C@@H]2COP(=O)(O)O[C@H]2[C@H]1OC(=O)CCC [dibutyril cAMP (DBA), dibutyril cAMP, reference compound] |  |  |  |  |  | PKA activation (phospho-PKA-C staining), spatial distribution [2]: induce spatially localized PKA activation in the basal body; PKA activation (phospho-PKA-C staining), spatial distribution ([2]; listed as dibutyril cAMP): more diffuse increase in phospho-PKA staining |
| CCn1c(SCC(=O)c2cccs2)nc2sc3c(c2c1=O)CCCC3 [JEH-3-087-1] | 21.6% | 39.5% | 96.1% | 1.37 µM | 12 µM |  |
| O=C(CSc1nc2sc3c(c2c(=O)n1C1CC1)CCCC3)c1cccs1 [Formula 9b] |  |  |  |  |  | Transcriptional inhibition in the Sufu−/− cell line, in words ([6]; Gli1 and Ptch1): general ability to inhibit transcriptional activity; LipE [7, 10]: 1.40; LipE ([7]; pEC50 - cLogP, Table 14): 1.40; EC50 [5, 11]: 1.89 ± 0.75 µM; EC50 [5, 12]: 1.89 ± 0.75 µM |
| CCCn1c(SCC(=O)c2cccs2)nc2sc3c(c2c1=O)CCCC3 [JEH-3-087-2] | 12.1% | 64.2% | 101% | 0.789 µM | 1.58 µM |  |
| Cc1c(C(=O)Nc2ccc(N3C[C@@H](C)O[C@@H](C)C3)nc2)cccc1-c1ccc(OC(F)(F)F)cc1 [Sonidegib, reference compound] |  |  |  |  |  | inhibition of Gli1 transcription ([6]; 0.1 μM): failed to inhibit transcription; inhibition of Ptch1 transcription ([3]; 0.1 μM): failed to inhibit transcription; LipE [7, 10]: 3.02; LipE ([7]; pEC50 - cLogP, Table 14): 3.02; Hh inhibitory activity / potency in words ([5]; 20 nM SAG): displayed expected potency; Hh inhibitory activity / potency in words ([5]; 20 nM SAG, listed as 2): low-nanomolar; EC50 [5, 11]: 0.0012 ± 0.0002 µM; EC50 [5, 12]: 0.0012 ± 0.0002 µM |
| O=C(CSc1nc2sc3c(c2c(=O)n1C1CC1)CCCC3)c1ccccc1 [JEH-1-163-1] | 41.9% |  |  |  | 1.96 µM | ZF Phenotype EC100 [8]: 0.81 µM |
| C=C(C)Cn1c(SCC(=O)N2CCCCC2)nc2sc3c(c2c1=O)CCCC3 [JEH-3-048-3] | -13.7% | 33.8% | 98.6% |  | 6.31 µM |  |
| C=C(C)Cn1c(SCC(=O)c2cccn2C)nc2sc3c(c2c1=O)CCCC3 [JEH-3-077] | 52.1% | 47.1% | 89.1% | 1.13 µM |  |  |
| C=C(C)Cn1c(SCC(=O)N2CCCCC2C)nc2sc3c(c2c1=O)CCCC3 (stereo not drawn) [JEH-3-069-2] | 77.6% | 38.6% | 97.6% | 2.74 µM | 2.5 µM |  |
